{"source": "patent US12171743B2", "about": "“Forms of aticaprant” (Janssen Pharmaceuticals, Inc., priority 2022, dated 2024)", "key": {"subjects with MDD [1]": {"tested_on": "subjects with MDD", "experiment": "MADRS total score, adjunctive aticaprant vs placebo in MDD (Example 8)", "conditions": "for MADRS Total Score: Mean Change from Baseline (SD): aticaprant 10 mg adjunctive to SSRI/SNRI; for MADRS: LSMeans difference estimate, supplementary MMRM analysis (COVID-19 impact): data collected prior to 15 Mar. 2020"}, "subjects with MDD [2]": {"tested_on": "subjects with MDD", "experiment": "ASEX sexual functioning score", "assay_type": "in vivo, human", "excerpt": "As used herein, the term “decrease in sexual functioning” refers to reducing or lessening of one or more components of the human sex drive, i.e., sexual functioning. In some embodiments, the sexual functioning comprises one or more of sexual drive, sexual arousal, vaginal lubrication, erection, orgasm achievement, or orgasm satisfaction. In other embodiments, the sexual functioning comprises sexual drive. In further embodiments, the sexual functioning comprises vaginal lubrication satisfaction. In further embodiments, the sexual functioning comprises orgasm achievement. In yet other embodiments, the sexual functioning comprises orgasm satisfaction. Desirably, the patient's sexual functioning is assessed at the time of initial administration of the crystalline Form I of aticaprant, crystalline Form II of aticaprant, crystalline Form III of aticaprant, or amorphous aticaprant. Thus, the patient's sexual functioning while taking crystalline Form I of aticaprant, crystalline Form II of aticaprant, crystalline Form III of aticaprant, or amorphous aticaprant can be compared to the patient's sexual functioning before administration of crystalline Form I of aticaprant, crystalline Form II of aticaprant, crystalline Form III of aticaprant, or amorphous aticaprant. Sexual functioning may be assessed by using standard scales and techniques such as the Arizona Sexual Experience Scale (ASEX). The ASEX is used to investigate whether crystalline Form I of aticaprant, crystalline Form II of aticaprant, crystalline Form III of aticaprant, or amorphous aticaprant has a further positive or negative effect on sexual function. The ASEX is 5 item rating scale administered to patients that quantifies sexual drive, sexual arousal, vaginal lubrication or penile erection, ability to reach orgasm and satisfaction. Scores range from 5 to 30, and two different versions of the scale are available (males and females).\nPatients had their sexual functioning measured using a standard, well accepted rating scale: ASEX. See, Table 68."}, "[3]": {"conditions": "eITT Analysis Set, High anhedonia (SHAPS Total Score at Treatment Baseline >=38), Treatment Week 6"}, "[4]": {"conditions": "fITT Analysis Set, High anhedonia (SHAPS Total Score at Treatment Baseline >=38), Treatment Week 6"}}}
{"smiles": "Cc1cc(C)cc(C2CCCN2Cc2ccc(Oc3ccc(C(N)=O)cc3F)cc2)c1", "note": "(stereo not shown) [aticaprant, 3-fluoro-4-4-2-(3,5-dimethylphenyl) pyrrolidin-1-yl-methylphenoxybenzamide]", "values": [{"measurement": "MADRS Total Score Effect size", "setting": "subjects with MDD [1]; [3]", "result": "−0.38"}, {"measurement": "MADRS Total Score Mean Change to Placebo (SD pooled)", "setting": "subjects with MDD [1]; [3]", "result": "−3.4 (8.98)"}, {"measurement": "MADRS Total Score Effect size", "setting": "subjects with MDD [1]; eITT Analysis Set, Low anhedonia (SHAPS Total Score at Treatment Baseline >=20 and <38), Treatment Week 6", "result": "−0.11"}, {"measurement": "MADRS Total Score: Mean Change from Baseline (SD)", "setting": "subjects with MDD [1]; eITT, Treatment Week 1", "result": "−3.3"}, {"measurement": "MADRS Total Score: Mean Change from Baseline (SD)", "setting": "subjects with MDD [1]; eITT, Treatment Week 3", "result": "−5.7"}, {"measurement": "MADRS Total Score: Mean Change to Placebo (SD pooled)", "setting": "subjects with MDD [1]; eITT, Treatment Week 4", "result": "−0.9 (7.00)"}, {"measurement": "MADRS Total Score: Mean Change from Baseline (SD)", "setting": "subjects with MDD [1]; eITT, Treatment Week 4", "result": "−7.3"}, {"measurement": "MADRS Total Score: Mean Change from Baseline (SD)", "setting": "subjects with MDD [1]; eITT, Treatment Week 5", "result": "−8.4"}, {"measurement": "MADRS Total Score: Mean Change from Baseline (SD)", "setting": "subjects with MDD [1]; eITT, Treatment Week 6", "result": "−10.2 (8.44)"}, {"measurement": "MADRS: LSMeans difference estimate, supplementary MMRM analysis (COVID-19 impact)", "setting": "subjects with MDD [1]; eITT", "result": "−3.0"}, {"measurement": "MADRS Total Score Effect size", "setting": "subjects with MDD [1]; [4]", "result": "−0.51"}, {"measurement": "MADRS Total Score Mean Change to Placebo (SD pooled)", "setting": "subjects with MDD [1]; [4]", "result": "−4.6 (9.03)"}, {"measurement": "MADRS Total Score Effect size", "setting": "subjects with MDD [1]; fITT Analysis Set, Low anhedonia (SHAPS Total Score at Treatment Baseline >=20 and <38), Treatment Week 6", "result": "−0.29"}, {"measurement": "MADRS Total Score Change from Baseline LSMean Difference (SE) Treatment-Placebo", "setting": "subjects with MDD [1]; fITT Analysis Set, Treatment Week 1, MMRM", "result": "−1.6 (1.03)"}, {"measurement": "MADRS Total Score Change from Baseline LSMean Difference (SE) Treatment-Placebo", "setting": "subjects with MDD [1]; fITT Analysis Set, Treatment Week 3, MMRM", "result": "−1.9 (1.04)"}, {"measurement": "MADRS Total Score Change from Baseline LSMean Difference (SE) Treatment-Placebo", "setting": "subjects with MDD [1]; fITT Analysis Set, Treatment Week 4, MMRM", "result": "−2.5 (1.04)"}, {"measurement": "MADRS Total Score Change from Baseline LSMean Difference (SE) Treatment-Placebo", "setting": "subjects with MDD [1]; fITT Analysis Set, Treatment Week 5, MMRM", "result": "−2.4 (1.05)"}, {"measurement": "MADRS Total Score Change from Baseline LSMean Difference (SE) Treatment-Placebo", "setting": "subjects with MDD [1]; fITT Analysis Set, Treatment Week 6, MMRM", "result": "−3.1 (1.05)"}, {"measurement": "MADRS Total Score: Mean Change to Placebo (SD pooled)", "setting": "subjects with MDD [1]; fITT, Treatment Week 4", "result": "−2.3 (7.02)"}, {"measurement": "MADRS total score: mean change from treatment baseline (SD)", "setting": "subjects with MDD [1]; fITT, Treatment Week 6", "result": "−9.7 (8.02)"}, {"measurement": "MADRS Total Score: Least Squares Mean Difference aticaprant vs placebo", "setting": "subjects with MDD [1]; fITT, Treatment Week 6, MMRM", "result": "−3.1"}, {"measurement": "MADRS: LSMeans difference estimate, supplementary MMRM analysis (COVID-19 impact)", "setting": "subjects with MDD [1]; fITT", "result": "−3.4"}, {"measurement": "sexual functioning (in words)", "setting": "subjects with MDD [2]; ASEX", "result": "notable improvements"}, {"measurement": "ASEX score", "setting": "subjects with MDD [2]; Baseline, n = 85", "result": 21.26}, {"measurement": "ASEX total score: mean change from treatment baseline (SD)", "setting": "subjects with MDD [2]; to week 6, lower score indicates improvement", "result": "−1.5 (4.02) points"}]}
